Assay results: article PMC6754136 (PLoS ONE, 2019)

Tests used:
[1] = mitochondrial viability assay with resazurin; assay type: cell-based, human; settings: human, four cell lines, 0.01–10 μM, even at the highest concentration tested (10 μM)
Experimental: The human cell lines SH-SY5Y (SY5Y, ATCC CRL-2266), SK-MEL-5 (SKMEL-5, ATCC HTB-70), and NCI-H187 (H187, ATCC CRL-5804) were cultured in RPMI medium supplemented with 10% FBS and no antibiotics. These three cell lines were generously provided by the laboratory of Susan Lindquist via Luke Whitesell (currently at the University of Toronto, Toronto, ON, Canada). BJ-hTERT (described in [27], generously provided by Robert Weinberg, Whitehead Institute, Cambridge MA, USA) was cultured in 4:1 DMEM:M199 medium supplemented with 15% FBS and no antibiotics. All cell lines were grown and assayed at 37 °C, 5% CO2. All cell lines were screened for mycoplasma contamination by PCR (Mycoscope Detection Kit, Fisher Scientific) before use in assays.
For viability assays, cells were plated in black, clear bottom 384-well tissue culture-treated plates (Corning) and incubated overnight in the media described above but supplemented with 50 U/mL penicillin-streptomycin antibiotic (Life Technologies). Then, DMSO (no drug controls) and PDE5 inhibitors (0.01–10 μM; synthesized as described above or purchased from Selleck Chemicals) were added using a Hewlett-Packard D300 Digital Dispenser (Tecan) and incubated for 3 days. Maximum DMSO concentration was normalized to 0.1% of the total well volume for all wells. Resazurin (R & D Systems) was diluted 1:20 into each well and incubated for up to 4 hours. Fluorescence was read in a Tecan plate reader (excitation = 570 nm, emission = 585 nm). Wells treated with PDE5 inhibitors were normalized against control wells treated with DMSO to measure percent mitochondrial viability (100 = no effect on mitochondrial viability).

[2] = system: cavernous smooth muscle cells; parameters: method as in PMID 17169663; settings: cells isolated from mice; cited from earlier work
[3] = system: human PDE5; settings: cited from earlier work
[4] = target: purified recombinant human PDE5 (Homo sapiens, UniProt O76074); assay: in vitro PDE5 inhibition assay measuring GMP production from cGMP (HPLC-UV-MS); assay type: biochemical
Experimental: STRENDA guidelines were considered in the description of the following enzyme activity assays. PDE5 inhibition and kinetics assays were carried out according to the method of Kincaid and Manganiello [31] and Dell’Agli et al. 1 nM recombinant human PDE5 (catalytic domain consisting of amino acids 537–875, Abcam, ab125581) was pre-incubated with PDE5 inhibitors (synthesized in-house as described above or purchased from Selleck Chemicals) in 40 mM tris-hydrochloric acid, pH 7.8, containing 10 mM MgCl2. […]. PDE5 inhibitors were added to each reaction using a Hewlett-Packard D300 Digital Dispenser (Tecan). Maximum DMSO concentration was 0.1% of the final reaction volume for all samples. After incubation at 25 °C for 5 minutes to allow interaction between PDE5 and drugs, the reaction was started with the addition of 0.3 μM cGMP (Enzo Life Sciences, Inc.) and incubated at 25 °C for 15 minutes. The final reaction volume was 100 μL. Reactions were stopped with the addition of 100 μL of 0.1 M HCl and neutralized by adding 0.1 M NaOH until the pH was 7. […] The amount of GMP produced was measured by HPLC-UV-MS as described in the general procedures. Reaction mixture components were separated with a ramp gradient of solvent A and B run at a flow rate of 0.5 mL/min as follows: 0–4 minutes 0% B, 4–7 minutes 0–95% B, 7–8 minutes 95% B, 8–11.1 minutes 0% B. GMP was measured using selected reaction monitoring in positive mode for a centroid center mass of 152.
A calibration curve using known concentrations of GMP was generated using the HPLC-UV-MS method described above to quantify the absolute amount of GMP in each reaction (S13 Fig). The linear range was from 5.9 nM to 3 μM. The limit of detection (LOD), defined as the lowest concentration producing a detectable peak above background, was 0.1 nM. The lower limit of quantification (LLOQ), defined as the lowest concentration used to generate a standard curve with r^2 > 0.95, was 5.9 nM. The upper limit of quantification (ULOQ), defined as the highest concentration used to generate a standard curve with r^2 > 0.95, was 3 μM. A GMP calibration curve was generated with each individual run of the HPLC-UV-MS.
To measure the IC50 as a result of treatment with each icariin analog, the in vitro inhibition enzyme assay as described above was performed, and GMP levels were normalized to no-drug controls and multiplied by 100 to obtain the percent PDE5 activity. IC50 mean ± SEM values were determined by nonlinear-regression fitting of the percent PDE5 activity data using the [inhibitor] vs response–variable slope (four parameters) equation in Prism (version 7.0a and version 8). Top value was constrained to 100, all other parameters were unconstrained. To obtain the dose-response curves for visual confirmation of the best-fit line, we executed a nonlinear regression fitting using the log(inhibitor) vs. response—variable slope (four parameters) equation in Prism. […] AICc analysis (built into Prism) was used to confirm the best-fitting inhibition model. […] Inhibition models were also compared via visual inspection of the fit of the calculated curves on the Michaelis-Menten plots.

Question: Which viability at 3 days, 10 μM [1] does the source give for `COc1ccc(-c2oc3c(CC=C(C)C)c(O[C@@H]4O[C@H](CO)[C@@H](O)[C@H](O)[C@H]4O)cc(O)c3c(=O)c2O[C@@H]2O[C@@H](C)[C@H](O)[C@@H](O)[C@H]2O)cc1` [icariin] here?
Answer: The viability at 3 days, 10 μM was > 70%.

Question: And the “effect on cGMP levels” value [2]?
Answer: The value was “increase cGMP levels”.

Question: What about the mode of inhibition [3] of the same compound?
Answer: The mode of inhibition was “competitively inhibit PDE5”.

Question: And the IC50 ([3]; human PDE5)?
Answer: Its IC50 is 1 to 6 µM.

Question: What about the IC50 [4] of the same compound?
Answer: The IC50 was 6 ± 1 µM.
